Source: ChEMBL document CHEMBL1201862, “PubChem BioAssay data set” (2004)
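Step 1: Grow cells in 96-well plates. Step 2: Expose to compound for 48 hours at 5 concentrations. Step 3: Interpolate endpoints linearly; if unreached, use highest concentration. The concentration for 50% growth inhibition is given as GI50.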 Activity calls are given as the source filed them. No stated cut-off is given here; in the data, active = GI50 up to about 1.1 µM and inactive = higher.

Columns and labels:
Experiment in all cases: DTP human tumour cell line panel, 48 h
[1] = system: DMS-273
[2] = system: SNB-78
[3] = system: XF498
[4] = system: M19-MEL
[5] = system: LXFL 529
[6] = system: KM-20L2
[7] = system: DLD-1
[8] = system: HOP-18
[9] = system: RXF 631

Compound: Nc1ccc(C(=O)NN2C(=O)C(Cl)C2c2cc(Br)ccc2O)cc1 (configuration not stated)
- GI50 [1]: 80.4 µM (inactive)
- GI50 [2]: > 100 µM (inactive)
- GI50 [3]: > 100 µM (inactive)
- GI50 [4]: > 100 µM (inactive)
- GI50 [5]: > 100 µM (inactive)
- GI50 [6]: > 100 µM (inactive)
- GI50 [7]: > 100 µM (inactive)

Compound: CSCCOC(=O)C(=[N+]=[N-])c1ccc([N+](=O)[O-])cc1
- GI50 [1]: > 100 µM (inactive)
- GI50 [3]: > 100 µM (inactive)
- GI50 [5]: > 100 µM (inactive)
- GI50 [6]: > 100 µM (inactive)
- GI50 [7]: > 100 µM (inactive)

Compound: Cc1c2cc[n+](C)cc2c(C)c2c1[nH]c1ccc(Oc3ccccc3)cc12
- GI50 [1]: 0.387 µM (active)
- GI50 [5]: 0.296 µM (active)
- GI50 [6]: 0.927 µM (active)
- GI50 [7]: 1.3 µM (inactive)

Compound: CC[C@@]1(O)C(=O)OCc2c1cc1n(c2=O)Cc2cc3cc4c(cc3nc2-1)OCO4
- GI50 [1]: < 0.001 µM (active)
- GI50 [8]: 0.0429 µM (active)
- GI50 [2]: 0.376 µM (active)
- GI50 [3]: 0.0238 µM (active)
- GI50 [4]: 0.00787 µM (active)
- GI50 [5]: 0.0107 µM (active)
- GI50 [9]: 0.0143 µM (active)
- GI50 [6]: 0.0121 µM (active)
- GI50 [7]: 0.0559 µM (active)

Compound: COc1cc(OC)c(/C=C2\N=C(C)N(Nc3nnc(NN4C(=O)/C(=C/c5c(OC)cc(OC)cc5OC)N=C4C)c4ccccc34)C2=O)c(OC)c1
- GI50 [1]: > 100 µM (inactive)
- GI50 [8]: > 100 µM (inactive)
- GI50 [2]: > 100 µM (inactive)
- GI50 [4]: > 100 µM (inactive)
- GI50 [5]: > 100 µM (inactive)
- GI50 [6]: > 100 µM (inactive)
- GI50 [7]: > 100 µM (inactive)

Compound: N#C/C(=C\c1c(Cl)cccc1Cl)c1ccccc1
- GI50 [1]: 3.35 µM (inactive)
- GI50 [8]: > 50.1 µM (inactive)
- GI50 [2]: 11.1 µM (inactive)
- GI50 [3]: 8.13 µM (inactive)
- GI50 [4]: 8.57 µM (inactive)
- GI50 [5]: 33.7 µM (inactive)
- GI50 [9]: 7.23 µM (inactive)
- GI50 [6]: 3.85 µM (inactive)
- GI50 [7]: 5.18 µM (inactive)

Compound: CCN(CC)c1oc(N(CC)CC)c(C(=O)Nc2ccccn2)c(=O)c1C(C)=O
- GI50 [1]: > 100 µM (inactive)
- GI50 [2]: > 100 µM (inactive)
- GI50 [3]: > 100 µM (inactive)
- GI50 [4]: > 100 µM (inactive)
- GI50 [5]: > 100 µM (inactive)
- GI50 [6]: > 10 µM (inactive)
- GI50 [7]: > 100 µM (inactive)

Compound: NC1=NCN(C2OC(CO)C(O)C2O)C(=O)N1 (configuration not stated)
- GI50 [1]: 7.64 µM (inactive)
- GI50 [8]: 22.4 µM (inactive)
- GI50 [2]: 36.9 µM (inactive)
- GI50 [3]: 17.5 µM (inactive)
- GI50 [4]: 70.6 µM (inactive)
- GI50 [6]: 14.5 µM (inactive)
- GI50 [7]: 6.52 µM (inactive)

Compound: CCCCC(N)CSSCC(N)CCCC (configuration not stated)
- GI50 [1]: 23.4 µM (inactive)
- GI50 [8]: > 100 µM (inactive)
- GI50 [2]: 32.7 µM (inactive)
- GI50 [3]: 20.3 µM (inactive)
- GI50 [4]: 26.2 µM (inactive)
- GI50 [5]: 16.8 µM (inactive)
- GI50 [7]: 21.6 µM (inactive)

Compound: O=C(CN1CCOCC1)Nc1nc(-c2ccc(Cl)cc2)cs1
- GI50 [1]: 17.5 µM (inactive)
- GI50 [8]: 38.5 µM (inactive)
- GI50 [2]: 25.2 µM (inactive)
- GI50 [3]: 13.2 µM (inactive)
- GI50 [4]: 32.6 µM (inactive)
- GI50 [7]: 33.1 µM (inactive)

Compound: COc1cc2c(c(OC)c1OC)[C@@H]1CCCCC[C@@H]1CCC2=O
- GI50 [1]: > 49.4 µM (inactive)
- GI50 [8]: > 100 µM (inactive)
- GI50 [3]: > 94 µM (inactive)
- GI50 [4]: > 100 µM (inactive)
- GI50 [5]: 58.7 µM (inactive)
- GI50 [9]: > 100 µM (inactive)
- GI50 [6]: > 90.8 µM (inactive)
- GI50 [7]: 38.4 µM (inactive)

Compound: O=S(=O)(c1ccccc1)n1cc(C[P+](c2ccccc2)(c2ccccc2)c2ccccc2)c2ccccc21
- GI50 [1]: 3.21 µM (inactive)
- GI50 [2]: 5.71 µM (inactive)
- GI50 [3]: 3.6 µM (inactive)
- GI50 [4]: 4.29 µM (inactive)
- GI50 [5]: 1.48 µM (inactive)
- GI50 [6]: 4.89 µM (inactive)
- GI50 [7]: 2.46 µM (inactive)

Compound: CC(CCC(=O)O)c1ccc(Br)cc1 (configuration not stated)
- GI50 [1]: > 100 µM (inactive)
- GI50 [8]: > 100 µM (inactive)
- GI50 [2]: > 100 µM (inactive)
- GI50 [4]: > 100 µM (inactive)
- GI50 [5]: > 100 µM (inactive)
- GI50 [6]: > 100 µM (inactive)
- GI50 [7]: > 100 µM (inactive)

Compound: CC(=O)c1ccccc1NC(=O)C(=O)C(C(=O)c1ccc2ccccc2c1)C1OC(=O)c2ccccc21 (configuration not stated)
- GI50 [1]: 6.32 µM (inactive)
- GI50 [8]: 14.5 µM (inactive)
- GI50 [2]: 9.4 µM (inactive)
- GI50 [3]: 3.13 µM (inactive)
- GI50 [4]: 8.85 µM (inactive)
- GI50 [5]: 9.79 µM (inactive)
- GI50 [6]: 32.2 µM (inactive)
- GI50 [7]: 12.2 µM (inactive)

Compound: C[C@]12Cc3conc3C(O)=C1CC[C@@H]1C2CC[C@@]2(C)C1CC[C@@H]2O (some centres not stated)
- GI50 [1]: 5.22 µM (inactive)
- GI50 [8]: 41 µM (inactive)
- GI50 [2]: 22.2 µM (inactive)
- GI50 [3]: 15 µM (inactive)
- GI50 [4]: 11.7 µM (inactive)
- GI50 [5]: 15 µM (inactive)
- GI50 [6]: 29.5 µM (inactive)

Compound: CCCCCCCCCCCOc1ccc(C(=O)C(=O)c2ccc(OCCCCCCCCCCC)c(OCCCCCCCCCCC)c2)cc1OCCCCCCCCCCC
- GI50 [1]: > 100 µM (inactive)
- GI50 [2]: > 100 µM (inactive)
- GI50 [3]: > 100 µM (inactive)
- GI50 [4]: > 100 µM (inactive)
- GI50 [5]: > 100 µM (inactive)
- GI50 [6]: > 100 µM (inactive)
- GI50 [7]: > 100 µM (inactive)

Compound: CC(C)C(Nc1c2ccccc2[n+](C)c2ccccc12)C(=O)O (configuration not stated)
- GI50 [1]: > 100 µM (inactive)
- GI50 [8]: > 100 µM (inactive)
- GI50 [2]: > 100 µM (inactive)
- GI50 [3]: > 100 µM (inactive)
- GI50 [4]: > 100 µM (inactive)
- GI50 [5]: > 100 µM (inactive)
- GI50 [6]: > 100 µM (inactive)
- GI50 [7]: > 100 µM (inactive)

Compound: CCCC[C@H](CCc1ccccc1)N(C(=O)OC)N1CCC[C@H]1COC
- GI50 [1]: 18.7 µM (inactive)
- GI50 [8]: 27.2 µM (inactive)
- GI50 [2]: 21.3 µM (inactive)
- GI50 [3]: 14 µM (inactive)
- GI50 [4]: 20.1 µM (inactive)
- GI50 [5]: 17.2 µM (inactive)
- GI50 [9]: 16.9 µM (inactive)
- GI50 [6]: 15.1 µM (inactive)
- GI50 [7]: 18.4 µM (inactive)

Compound: NCCCCNc1ccc2c(=O)[nH][nH]c(=O)c2c1
- GI50 [1]: > 100 µM (inactive)
- GI50 [8]: > 100 µM (inactive)
- GI50 [2]: > 100 µM (inactive)
- GI50 [4]: > 100 µM (inactive)
- GI50 [5]: > 100 µM (inactive)
- GI50 [6]: > 100 µM (inactive)
- GI50 [7]: > 100 µM (inactive)

Compound: NC(=S)N1N=C2c3ccccc3CC[C@H]2[C@@H]1c1cccs1
- GI50 [1]: 10.8 µM (inactive)
- GI50 [8]: 21.1 µM (inactive)
- GI50 [2]: 32.4 µM (inactive)
- GI50 [3]: 37.2 µM (inactive)
- GI50 [4]: 19.9 µM (inactive)
- GI50 [5]: 30.8 µM (inactive)
- GI50 [6]: 23.9 µM (inactive)
- GI50 [7]: 50.5 µM (inactive)

Compound: O=C1C=CC(=O)C2=C1[C@@H](O)C1CC=CC3C(=O)O[C@@H]2C31 (some centres not stated)
- GI50 [1]: 21.9 µM (inactive)
- GI50 [8]: 29.4 µM (inactive)
- GI50 [2]: > 42.7 µM (inactive)
- GI50 [3]: 22.1 µM (inactive)
- GI50 [4]: 23.2 µM (inactive)
- GI50 [5]: 15.6 µM (inactive)
- GI50 [6]: 23.5 µM (inactive)
- GI50 [7]: 18.2 µM (inactive)
